Assay results: US10414774B2, “Compound useful for altering the levels of bile acids for the treatment of diabetes and cardiometabolc disease” (Merck Sharp & Dohme Corp., priority 2016, dated 2019)

Biological target: T1, Human CYP8B1 (Homo sapiens, UniProt Q9UNU6)
T1 sequence (Q9UNU6 1-501): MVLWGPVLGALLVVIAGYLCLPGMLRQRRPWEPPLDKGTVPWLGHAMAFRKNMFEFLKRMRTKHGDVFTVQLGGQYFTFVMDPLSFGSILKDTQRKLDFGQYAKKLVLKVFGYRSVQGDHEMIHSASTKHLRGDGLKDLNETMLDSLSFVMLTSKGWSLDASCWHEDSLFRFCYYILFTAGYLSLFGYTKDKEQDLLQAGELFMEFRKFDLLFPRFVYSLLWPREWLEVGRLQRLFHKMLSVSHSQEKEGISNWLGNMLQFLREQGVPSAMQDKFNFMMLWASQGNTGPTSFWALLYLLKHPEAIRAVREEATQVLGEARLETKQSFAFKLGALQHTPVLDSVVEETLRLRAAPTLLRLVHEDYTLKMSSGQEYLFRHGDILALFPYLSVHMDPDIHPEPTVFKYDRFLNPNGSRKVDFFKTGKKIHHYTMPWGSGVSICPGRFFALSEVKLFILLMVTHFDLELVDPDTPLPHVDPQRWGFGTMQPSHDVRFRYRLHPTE
Test: Human CYP8B1 Liver Microsome Assay
Settings: Human CYP8B1 IC50, human liver microsomes; substrate 7a-hydroxy-4-cholesten-3-one, NADPH; RapidFire MS detection of 7α,12α-dihydroxy-4-cholesten-3-one
Description: To a 384 well polypropylene plate (Corning 3656), 250 nl of inhibitor in 100% DMSO (1.25% final DMSO concentration) was pre-plated using an Echo liquid handler (Labcyte Inc.). Human liver microsomes (Xenotech) were diluted in of 0.1 M phosphate buffer, pH 7.4, at a concentration of 65 μg/ml and 15 μL was added to the 384 well plate. The plates were incubated at ambient room temperature for 30 minutes. After pre-incubation with inhibitor, the reaction was initiated by adding 5 μl of substrate solution (4.0 μM 7a-hydroxy-4-cholesten-3-one (Toronto Research Chemicals), 2 mM of NADPH (Sigma), 0.1 M phosphate buffer (pH 7.4). The reaction was carried out for 45 minutes at ambient room temperature and was quenched by the addition of 50 μl of acetonitrile+0.1% vol/vol formic acid (FA)+300 nM 7α-hydroxy-4-cholesten-3-one-d7 (Toronto Research Chemicals). The plates were sealed and centrifuged at 3000 rpm for 5 minutes. Plates were loaded onto the Agilent RapidFire RF300 HTMS system, wherein samples were sipped for 600 ms, and the sip sensor detection signals the diversion of sample from the loop onto a C4 solid phase extraction (SPE) cartridge, where salts are washed off for 2500 ms with a mobile phase of water with 0.1% vol/vol FA at a flow rate of 1.5 ml/min. The column path was switched, and the sample was eluted off the cartridge and flowed into the mass spectrometer for 3000 ms with a mobile phase of acetonitrile and 0.1% vol/vol FA at a flow rate of 1.25 ml/min. The aspirator tip was washed separately with water and acetonitrile between sample aspirations (each for 600 ms) to minimize carryover contamination. Mass spectrometry was carried out using a Sciex API4000 triple quadrupole mass spectrometer (Applied Biosystems, Concord, ON, Canada) equipped with electrospray ionization (ESI) operated in the positive-ion mode. The product 7α,12α-dihydroxy-4-cholesten-3-one and internal standard 7α-hydroxy-4-cholsten-3-one-d7 were detected using multiple reaction monitoring (MRM) with Q1/Q3 transitions at m/z 417.3 to 381.3 and m/z 408.3 to 390.3, respectively, with a dwell time of 100 ms and a collision energy of 24 V for each transition. The mass spectrometer used an ESI voltage of 5000 V and a source temperature of 650° C. Extracted ion chromatograms for each transition were integrated and processed using the RapidFire Integrator software. The data for each well were normalized by monitoring product conversion with the ratio of AUCproduct/(AUCinternal standard). The data was then fitted to a four parameter logistic fit using ActivityBase Software to calculate an IC50 of the inhibitor.

Row | SMILES | IC50 [nM]
1 | COc1ccc2c(N3CCC(C(=O)N4CCn5c(C)nnc5C4)C(C)C3)c(C#N)cnc2c1 (stereo not shown) [Example 84, 7-methoxy-4-{3-methyl-4-[(3-methyl-5,6-dihydro[1,2,4]triazolo[4,3-a]pyrazin-7(8H)-yl)carbonyl]piperidin-1-yl}quinoline-3-carbonitrile] | 3.3
2 | COc1cccc2nc(C)c(C#N)c(N3CC[C@H](C(=O)N4CCn5c(nnc5C(F)(F)F)C4)[C@H](C)C3)c12 [Example 35, 5-methoxy-2-methyl-4-[(3S,4S)-3-methyl-4-{[3-(trifluoromethyl)-5,6-dihydro[1,2,4]triazolo[4,3-a]pyrazin-7(8H)-yl]carbonyl}piperidin-1-yl]quinoline-3-carbonitrile] | 1.4
3 | CC1CN(C(=O)C2CCN(c3c(C#N)cnc4ccc(Cl)cc34)CC2)Cc2nnc(C(F)(F)F)n21 (stereo not shown) [Example 112, 6-chloro-4-(4-{[5-methyl-3-(trifluoromethyl)-5,6-dihydro[1,2,4]triazolo[4,3-a]pyrazin-7(8H)-yl]carbonyl}piperidin-1-yl)quinoline-3-carbonitrile] | 69.7
4 | Cc1nc2ccc(Cl)cc2c(N2CC[C@H](C(=O)N3CCc4n[nH]c(C(F)(F)F)c4C3)[C@H](C)C2)c1C#N [Example 92, 6-chloro-2-methyl-4-[(3S,4S)-3-methyl-4-{[3-(trifluoromethyl)-2,4,6,7-tetrahydro-5H-pyrazolo[4,3-c]pyridin-5-yl]carbonyl}piperidin-1-yl]quinoline-3-carbonitrile] | 35
5 | Cc1nc2c(F)cc(F)cc2c(N2CCC(C(=O)N3CCn4c(nnc4C(F)(F)F)C3)CC2)c1C#N [Example 49, 6,8-difluoro-2-methyl-4-(4-(3-(trifluoromethyl)-5,6,7,8-tetrahydro-[1,2,4]triazolo[4,3-a]pyrazine-7-carbonyl)piperidin-1-yl)quinoline-3-carbonitrile] | 1730
6 | C[C@H]1CN(c2c(C#N)cnc3c(F)c(Cl)ccc23)CC[C@H]1C(=O)N1CCn2c(nnc2C2CC2)C1 [Example 65, 7-chloro-4-{(3R,4R)-4-[(3-cyclopropyl-5,6-dihydro[1,2,4]triazolo[4,3-a]pyrazin-7(8H)-yl)carbonyl]-3-methylpiperidin-1-yl}-8-fluoroquinoline-3-carbonitrile] | 318
7 | CC1CN(c2c(C#N)c(C(F)F)nc3ccc(Cl)cc23)CCC1C(=O)N1CCn2c(nnc2C(F)(F)F)C1 (stereo not shown) [Example 57, 6-chloro-2-(difluoromethyl)-4-(3-methyl-4-{[3-(trifluoromethyl)-5,6-dihydro[1,2,4]triazolo[4,3-a]pyrazin-7(8H)-yl]carbonyl}piperidin-1-yl)quinoline-3-carbonitrile] | 69
8 | COc1ccc2nc(C)c(C#N)c(N3CCC(C(=O)N4CCn5c(nnc5C(F)(F)F)C4)CC3)c2c1 [Example 47, 6-methoxy-2-methyl-4-(4-(3-(trifluoromethyl)-5,6,7,8-tetrahydro-[1,2,4]triazolo[4,3-a]pyrazin-7-carbonyl)piperidin-1-yl)quinoline-3-carbonitrile] | 564
9 | COc1ccc2c(N3CC[C@H](C(=O)N4CCn5c(nnc5C(F)(F)F)C4)[C@H](C4CC4)C3)c(C#N)cnc2c1F [Example 77b, 4-[(3S,4S)-3-cyclopropyl-4-{[3-(trifluoromethyl)-5,6-dihydro[1,2,4]triazolo[4,3-a]pyrazin-7(8H)-yl]carbonyl}piperidin-1-yl]-8-fluoro-7-methoxyquinoline-3-carbonitrile] | 1.8
10 | C[C@@H]1CN(c2c(C#N)cnc3c2CCN(C(=O)OC2(C)CC2)C3)CC[C@@H]1C(=O)N1CCn2c(nnc2C2CC2)C1 [Example 85, 1-methylcyclopropyl 3-cyano-4-((3S,4S)-4-(3-cyclopropyl-5,6,7,8-tetrahydro-[1,2,4]triazolo[4,3-a]pyrazine-7-carbonyl)-3-methylpiperidin-1-yl)-5,6-dihydro-1,7-naphthyridine-7(8H)-carboxylate] | 2
11 | CCc1nnc2n1CCN(C(=O)C1CCN(c3c(C#N)cnc4ccc(Cl)cc34)CC1)C2 [Example 106, 6-chloro-4-{4-[(3-ethyl-5,6-dihydro[1,2,4]triazolo[4,3-a]pyrazin-7(8H)-yl)carbonyl]piperidin-1-yl}quinoline-3-carbonitrile] | 8.1
12 | C[C@@H]1CN(c2c(C#N)cnc3cc(C(C)(F)F)ccc23)CC[C@@H]1C(=O)N1CCn2c(nnc2C(F)(F)F)C1 [Example 78, 7-(1,1-difluoroethyl)-4-[(3S,4S)-3-methyl-4-{[3-(trifluoromethyl)-5,6-dihydro[1,2,4]triazolo[4,3-a]pyrazin-7(8H)-yl]carbonyl}piperidin-1-yl]quinoline-3-carbonitrile] | 1
13 | Cc1nc2c(F)cc(F)cc2c(N2CC[C@H](C(=O)N3CCn4c(nnc4C(F)(F)F)C3)[C@H](C)C2)c1C#N [Example 10, 6,8-difluoro-2-methyl-4-[(3S,4S)-3-methyl-4-{[3-(trifluoromethyl)-5,6-dihydro[1,2,4]triazolo[4,3-a]pyrazin-7(8H)-yl]carbonyl}piperidin-1-yl]quinoline-3-carbonitrile] | 2.8
14 | C[C@@H]1CN(c2c(C#N)cnc3cccnc23)CC[C@@H]1C(=O)N1CCn2c(nnc2C(F)(F)F)C1 [Example 33, 4-[(3S,4S)-3-methyl-4-{[3-(trifluoromethyl)-5,6-dihydro[1,2,4]triazolo[4,3-a]pyrazin-7(8H)-yl]carobnyl}piperidin-1-yl]-1,5-naphthyridine-3-carbonitrile] | 1.3
15 | CC1CC(C(=O)N2CCn3c(nnc3C(F)(F)F)C2)CCN1c1c(C#N)cnc2ccc(Cl)cc12 (single isomer, unassigned) [Example 73a, 6-chloro-4-[(2R,4R) or (2S,4S)-2-methyl-4-{[3-(trifluoromethyl)-5,6-dihydro[1,2,4]triazolo[4,3-a]pyrazin-7(8H)-yl]carbonyl}piperidin-1-yl]quinoline-3-carbonitrile] | 6.4
16 | Cc1nc2ccc(Cl)cc2c(N2CC[C@H](C(=O)N3CCn4cc(C(F)(F)F)nc4C3)[C@H](C)C2)c1C#N [Example 99, 6-chloro-2-methyl-4-[(3S,4S)-3-methyl-4-{[2-(trifluoromethyl)-5,6-dihydroimidazo[1,2-a]pyrazin-7(8H)-yl]carbonyl}piperidin-1-yl]quinoline-3-carbonitrile] | 52
17 | N#Cc1cnc2ccc(Cl)cc2c1N1CCN(C(=O)N2CCn3c(nnc3C(F)(F)F)C2)C2(CC2)C1 [Example 127, 6-chloro-4-(4-{[3-(trifluoromethyl)-5,6-dihydro[1,2,4]triazolo[4,3-a]pyrazin-7(8H)-yl]carbonyl}-4,7-diazaspiro[2.5]oct-7-yl)quinoline-3-carbonitrile] | 98
18 | C[C@@H]1CN(c2c(C#N)cnc3cc(OCC4CC4)ccc23)CC[C@@H]1C(=O)N1CCn2c(nnc2C(F)(F)F)C1 [Example 100, 7-(cyclopropylmethoxy)-4-[(3S,4S)-3-methyl-4-{[3-(trifluoromethyl)-5,6-dihydro[1,2,4]triazolo[4,3-a]pyrazin-7(8H)-yl]carbonyl}piperidin-1-yl]quinoline-3-carbonitrile] | 0.35
19 | CC1(C(=O)N2CCn3c(nnc3C(F)(F)F)C2)CCN(c2c(C#N)cnc3ccc(Cl)cc23)CC1 [Example 121, 6-chloro-4-(4-methyl-4-{[3-(trifluoromethyl)-5,6-dihydro[1,2,4]triazolo[4,3-a]pyrazin-7(8H)-yl]carbonyl}piperidin-1-yl)quinoline-3-carbonitrile] | 14
20 | N#Cc1cnc2cc(C(F)(F)F)ccc2c1N1CCC(C(=O)N2CCn3c(nnc3C(F)(F)F)C2)CC1 [Example 43, 7-(trifluoromethyl)-4-(4-{[3-(trifluoromethyl)-5,6-dihydro[1,2,4]triazolo[4,3-a]pyrazin-7(8H)-yl]carbonyl}piperidin-1-yl)quinoline-3-carbonitrile] | 6.3
21 | COc1ccc2c(N3CC[C@H](C(=O)N4CCn5c(nnc5C(F)F)C4)[C@H](C)C3)c(C#N)cnc2c1 [Example 70, 4-[(3S,4S)-4-{[3-(difluoromethyl)-5,6-dihydro[1,2,4]triazolo[4,3-a]pyrazin-7(8H)-yl]carbonyl}-3-methylpiperidin-1-yl]-7-methoxyquinoline-3-carbonitrile] | 0.88
22 | COc1ccc2c(N3CC[C@H](C(=O)N4CCn5c(nnc5C(F)(F)F)C4)[C@H](C)C3)c(C#N)cnc2c1 [Example 28, 7-methoxy-4-[(3S,4S)-3-methyl-4-{[3-(trifluoromethyl)-5,6-dihdyro[1,2,4]triazolo[4,3-a]pyrazin-7(8H)-yl]carbonyl}piperidin-1-yl]quinoline-3-carbonitrile] | 0.61
23 | C[C@@H]1CN(c2c(C#N)cnc3c(F)cc(C4CCC4)cc23)CC[C@@H]1C(=O)N1CCn2c(nnc2C(F)(F)F)C1 [Example 87, 6-cyclobutyl-8-fluoro-4-((3S,4S)-3-methyl-4-(3-(trifluoromethyl)-5,6,7,8-tetrahydro-[1,2,4]triazolo[4,3-a]pyrazine-7-carbonyl)piperidin-1-yl) quinoline-3-carbonitrile] | 0.3

Same assay, conditions: read-out: Human CYP8B1 IC50; human liver microsomes; substrate 7a-hydroxy-4-cholesten-3-one, NADPH; RapidFire MS detection of 7α,12α-dihydroxy-4-cholesten-3-one

Row | SMILES | IC50 [nM]
24 | C[C@@H]1CN(c2c(C#N)cnc3ccc(C(F)(F)F)cc23)CC[C@@H]1C(=O)N1CCn2c(nnc2C(F)(F)F)C1 (single isomer, unassigned) [Example 119a] | 41.4
25 | C[C@H]1CN(c2c(C#N)cnc3ccc(C(F)(F)F)cc23)CC[C@H]1C(=O)N1CCn2c(nnc2C(F)(F)F)C1 (single isomer, unassigned) [Example 119b] | 0.3
